Experiments:
[1] = tested on: DuP 996 binding protein; assay: Phospholipase C pretreatment, binding of tritiated DuP 996; design: species or system rat; conditions: 5-50 μg/ml phospholipase C, 10 min, 37° C.
Procedure: (§1) One ml aliquots of brain membranes (1-2 mg of protein) in 50 mM Tris-HCl buffer, pH 7.4, were incubated with 5-50 μg/ml of phospholipase C for 10 min at 37° C. 10 nM of tritiated DuP 996 was added and incubated for 45 min at 25° C. Samples were filtered on Whatman GF/B filters which had been presoaked in 0.2% polyethylenimine under negative pressure and washed 3 times with ice-cold buffer. Nonspecific binding was determined in the presence of 10 μM DuP 996.

[2] = tested on: Detergent Solubilized Rat Brain Membrane Proteins; assay: Specific [^3 H]DuP 996 binding to detergent solubilized rat brain membrane proteins; conditions: 10 nM tritiated DuP 996
Procedure: […] The mixture was centrifuged at 47,000×g for 20 minutes. The supernatant containing the solubilized protein was collected. The supernatant from centrifugation of brain membranes without detergent was used as the control.
Fifty μl aliquots of the solubilized membrane protein were incubated with 0.2 ml of 50 mM Tris-HCl, pH 7.4, with 0.1% bovine serum albumin, and 10 nM tritiated DuP 996 in a total volume of 0.325 ml. Nonspecific binding was determined in the presence of 10 μM DuP 996. After 1 hour of incubation at 25° C., 0.5 ml of ice-cold 0.1M sodium phosphate buffer, pH 7.4, with 0.1% bovine gamma globulin was added. The sample was put on ice and then 0.5 ml of 25% (w/v) polyethylene glycol 8000 was added and mixed. The sample was put on ice for 10 to 15 minutes and filtered through Whatman GF/B filters which had been presoaked in 0.2% polyethylenimine. The filtered sample was washed twice with 3 ml each of ice cold 8% polyethylene glycol 8000 in 100 mM Tris-HCl, pH 7.4. Bound radioactivity retained on the filters was counted in a liquid scintillation counter.

[3] = molecular target: DuP 996 binding protein; assay: Radioreceptor screening assay (displacement of tritiated DuP 996); design: species or system rat; conditions: inhibition of binding of 10 nM tritiated DuP 996, pH 7.4, 25° C., 60 minutes
Procedure: Male Sprague-Dawley rats (Charles River Breeding Laboratories) at 200-250 g were euthanatized by decapitation. Rat brain regions were dissected according to Heffner et al., Pharmacol. Biochem. Behav., 13, 453 (1980). Brain membranes were prepared by the method of Tam, Proc. Natl. Acad. Sci. USA, 80, 6703 (1983). The brain tissues were homogenized (20 sec) in 10 vol (wt/vol) of ice-cold 0.32M sucrose with a Brinkman Polytron (setting 8). The homogenate was centrifuged at 920×g for 10 min at 4° C. The supernatant was centrifuged at 47,000×g for 20 min. The resulting membrane pellet was resuspended in 10 vol (original wt/vol) of 50 mM Tris-HCl (pH 7.4) and incubated at 37° C. for 30 min to degrade and dissociate bound endogenous ligands. The membranes were then centrifuged at 47,000×g for 20 min and resuspended in 50 mM Tris-HCl.
Compounds to be screened were incubated with brain membranes. (1-2 mg protein) in 50 mM Tris-HCl buffer, pH 7.4, for 10 minutes in 25° C. Then 10 nM tritiated DuP 996 or its active structural analogs were added and incubated at 25° C. for 60 minutes. The samples were filtered on Whatman GF/B glass filters which had been soaked in 0.2% polyethylenimine and washed 3 times each with 5 ml of ice-cold Tris buffer. Nonspecific binding was determined by performing binding in the presence of 10 μM DuP 996. The control represents specific binding in the absence of compounds to be screened. Screened compounds which inhibited the specific binding of tritiated DuP 996 or analogs to its binding protein should be active in binding to the same protein. This is illustrated further in Example 4, Part B.

[4] = tested on: DuP 996 binding protein; assay: Trypsin pretreatment, binding of tritiated DuP 996; design: species or system rat; conditions: 0.1-100 μg/ml trypsin, 25° C., 10 min
Procedure: as §1, with “0.1-100” for “5-50”, “trypsin (17,000 BAEE units/mg protein) at 25° C.” for “phospholipase C”, “min.” for “min at 37° C.”, “C. […].” for “C.”

[5] = tested on: ACh release; assay: Neurotransmitter release assay: stimulated ACh release from brain slices; design: species or system rat; conditions: concentration to enhance stimulated release of ACh by 100% (2-fold) over control, from dose response curves
Procedure: Male Wistar rats weighing 175-200 g were euthanatized and the brains were dissected out immediately. Slices (0.3 mm thick) from the parietal cortex were prepared manually by using a recessed Lucite® guide. Slices (1.5 mm thick) from the hippocampus and the caudate nucleus were prepared by using a slotted brain holder. All slices were subsequently cut into 0.25×0.25 mm squares with a McIlwain tissue chopper.
Labeling of transmitter stores in slices was prepared by the following methods. For ACh release, slices (approximately 100 mg wet weight) were incubated in 10 ml Krebs-Ringer (KR) medium containing (mM): NaCl(116), KCl(3), CaCl2 (1.3), MgCl2 (1.2), KH2 PO4 (1.2), Na2 SO4 (1.2), NaHCO3 (25) and glucose(11), to which 10 μCi ^3 H-choline (specific activity approx. 80 Ci/mmol: NEN) and 10 nmol unlabeled choline had been added to give a final concentration of 10^-6 M. Incubation was carried out for 30 min at 37° C. under a steady flow of 95% O2 /5% CO2. Under these conditions, part of the radioactive choline taken up is converted into radioactive ACh by cholinergic nerve endings, stored in synaptic vesicles, and released upon depolarization by high-K^+ -containing medium [Molenaar et al., 1973a]. For dopamine (DA), serotonin (5-HT), and norepinephrine (NE) release, slices (approximately 100 mg wet weight) were incubated in KR medium containing 0.01 mM nialamide at 37° C. under a steady flow of 95% O2 /5% CO2. The MAO-inhibitor nialamide was added to the medium in order to inhibit metabolism to the monoamines. Incubation was for 30 min in 10 ml of KR medium to which 10 μCi ^3 H-dopamine, ^3 H-norepinephrine, or ^3 H-5-hydroxytryptamine (specific activity 30, 45, and 78 Ci/mmol, respectively: all from NEN) had been added.
Separate experiments were performed for the release of each neurotransmitter. After labeling of the transmitter stores, the slices were washed three times with non-radioactive KR medium and transferred to a superfusion apparatus to measure the drug effects on transmitter release [Schoemaker et al., Psychopharmacology 74, 137 (1981)]. The superfusion apparatus consisted of 10 thermo-jacketed glass columns of 5 mm diameter which were provided with GF/F glass fiber filters to support the brain slices (approximately 10 mg tissue/column). Superfusion was carried out with KR medium at a rate of 0.3 ml/min. For ACh release, 10^-5 M hemicholinium-3 was added to the medium to prevent the uptake of choline formed during superfusion from phospholipids and released ACh, so that it could not be subsequently converted into newly synthesized ACh, which would be released in preference to the pre-formed, labeled ACh. The medium was delivered by a 25-channel peristaltic pump (Ismatec; Brinkman) and maintained at 37° C. by a thermostated stainless-steel heating coil before entering the superfusion column. Each column was provided with a four-way slider valve (Beckman Instruments) which allowed rapid change of low-to-high-K^+ -KR-medium and with two 10-channel, 3-way valves which were used to change form drug-free to drug-containing low- and high-K^+ -KR media.
After 15 min washout of non-specifically bound radioactivity during superfusion, the collection of fractions of 4 min (1.2 ml) each was started. After 3×4 min, the KR medium was changed to a KR medium with 25 mM KCl (ACh, 5-HT release) or 12.5 mM KCl (DA release) (high K^+ -KR medium; S1). Depolarization-induced stimulation of release by high-K^+ -KR medium was then substituted by drug- or vehicle-containing low- and high-K^+ -KR medium and superfusion continued for 3×4 min with low-K^+ -KR medium, for 1×4 min with high-K^+ -KR medium (S2), and for 2×4 min with low-K^+ -KR medium.
Compounds were added to the medium by 100-fold dilution of appropriate stock solutions (in 0.9% NaCl/H2 O) with either low- or high-K^+ -KR medium.
All superfusion fractions were collected in liquid scintillation counting vials.

[6] = tested on: Alzheimer's patients; conditions: clinical trials with cholinesterase inhibitors, literature; cited from earlier work

O=C1N(c2ccccc2)c2ccccc2C1(Cc1ccncc1)Cc1ccncc1 [Compound 7, 3,3-Bis(4-pyridinylmethyl)-1-phenylindolin-2-one]
DuP 996 binding activity after preincubation with phospholipase C [1]: no effect on the DuP 996 binding activity
SPECIFIC BINDING ([2]; CHAPS, 20 mM): 868 dpm
SPECIFIC BINDING ([2]; NP40): 348 dpm
SPECIFIC BINDING ([2]; Octyl glucoside, 0.4%): 511 dpm
SPECIFIC BINDING ([2]; Triton X-100, 1%): 0 dpm
SPECIFIC BINDING ([2]; Tween 80, 1%): 134 dpm
IC50 [3]: 0.056 µM
tritiated DuP 996 binding activity after trypsin preincubation [4]: loss of tritiated DuP 996 binding activity

c1ccc(CC2(Cc3ccccn3)c3ccccc3-c3ccccc32)nc1 [Compound 29, 2-[9-(2-pyridinylmethyl)-9H-fluoren-9-ylmethyl]-pyridine]
IC50 [3]: 1100 µM
ACh Release EC100 [5]: 990,000 nM

Cc1nc(CC2(Cc3csc(C)n3)C(=O)N(c3ccccc3)c3ccccc32)cs1 [Compound 30, 3,3-Bis(2-methyl-4-thiazolylmethyl)-1,3-dihydro-1-phenyl-2H-indol-2-one]
IC50 [3]: 1200 µM
ACh Release EC100 [5]: 980,000 nM

CNC(=O)Oc1ccc2c(c1)[C@]1(C)CCN(C)[C@@H]1N2C [physostigmine]
cognitive measures in Alzheimer's patients [6]: limited improvement in cognitive measures
